Reference: US20030158254A1, “Engineering absorption of therapeutic compounds via colonic transporters” (XenoPort, Inc., priority 2002, published 2003)

Biological target: T1, human PEPT1 (Homo sapiens, UniProt P46059)
T1 construct: Rat and human PEPT1 and PEPT2 transporter cDNAs were subcloned into a modified pGEM plasmid; expressed in transfected cells; host or cells: Xenopus laevis oocytes injected with in vitro transcribed RNA
T1 sequence (P46059 1-708): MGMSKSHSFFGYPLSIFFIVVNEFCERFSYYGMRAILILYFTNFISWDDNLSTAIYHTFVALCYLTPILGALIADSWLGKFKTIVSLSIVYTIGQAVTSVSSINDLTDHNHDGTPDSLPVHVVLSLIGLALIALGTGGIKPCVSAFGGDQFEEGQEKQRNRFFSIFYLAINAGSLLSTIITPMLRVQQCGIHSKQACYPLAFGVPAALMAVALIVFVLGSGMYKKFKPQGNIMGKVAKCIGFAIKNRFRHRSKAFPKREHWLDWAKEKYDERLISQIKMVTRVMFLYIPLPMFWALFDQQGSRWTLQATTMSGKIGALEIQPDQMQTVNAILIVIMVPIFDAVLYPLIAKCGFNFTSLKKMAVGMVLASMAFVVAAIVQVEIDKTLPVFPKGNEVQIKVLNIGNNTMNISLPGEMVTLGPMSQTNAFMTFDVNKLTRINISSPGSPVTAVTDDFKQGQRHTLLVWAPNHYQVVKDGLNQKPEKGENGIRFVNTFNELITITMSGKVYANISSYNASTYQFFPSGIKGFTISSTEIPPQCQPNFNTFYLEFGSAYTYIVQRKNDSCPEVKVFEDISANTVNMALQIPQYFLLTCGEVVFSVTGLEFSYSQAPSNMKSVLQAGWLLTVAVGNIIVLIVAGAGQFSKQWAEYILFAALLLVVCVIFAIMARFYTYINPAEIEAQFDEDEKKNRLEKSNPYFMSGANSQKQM
Assay: Electrogenic transport (induced current) in Xenopus oocytes transfected with human PEPT1
Assay type: cell-based
Experimental: Rat and human PEPT1 and PEPT2 expressing CHO cell lines were prepared as described in PCT Application WO01/20331. Gabapentin-containing dipeptides were evaluated for interaction with the peptide transporters using a radiolabeled substrate uptake assay in a competitive inhibition format, as described in PCT Application WO01/20331. Transport-induced currents were also measured in Xenopus oocytes transfected with rat and human PEPT1 and PEPT2.
RNA preparation: Rat and human PEPT1 and PEPT2 transporter cDNAs were subcloned into a modified pGEM plasmid that contains 5′ and 3′ untranslated sequences from the Xenopus β-actin gene. These sequences increase RNA stability and protein expression. Plasmid cDNA was linearized and used as template for in vitro transcription (Epicentre Technologies transcription kit, 4:1 methylated:non-methylated guanosine triphosphate(GTP)).
Xenopus oocyte isolation. Xenopus laevis frogs were anesthetized by immersion in Tricaine ([…] in deionized water) for 15 min. […]
Electrophysiology measurements. Transport currents were measured 2-14 days after injection, using a standard two-electrode electrophysiology set-up (Geneclamp 500 amplifier, Digidata 1320/PCLAMP software and ADInstruments hardware and software were used for signal acquisition). […]

CC(C)(N)C(=O)NCC1(CC(=O)O)CCCCC1 [Compound V, a-aminoisobutyryl gabapentin]
Vmax relative to reference substrate Gly-Sar (1 mM, oocytes transfected with human PEPT1): 66%
Vmax relative to Gly-Sar in the presence of PEPT inhibitor Lys(ε-Dansyl)-Leu (human PEPT transfected oocytes, with Lys(ε-Dansyl)-Leu): < 5%
